The target in test [1] is T1, OsSRT1 (FL) (Oryza sativa, UniProt B8ARK7).
T1 construct: gene SRT1; full length 1-483, cloned from rice leaf cDNA into pET30a, His-tagged, monomer by SEC
T1 sequence (B8ARK7 1-483): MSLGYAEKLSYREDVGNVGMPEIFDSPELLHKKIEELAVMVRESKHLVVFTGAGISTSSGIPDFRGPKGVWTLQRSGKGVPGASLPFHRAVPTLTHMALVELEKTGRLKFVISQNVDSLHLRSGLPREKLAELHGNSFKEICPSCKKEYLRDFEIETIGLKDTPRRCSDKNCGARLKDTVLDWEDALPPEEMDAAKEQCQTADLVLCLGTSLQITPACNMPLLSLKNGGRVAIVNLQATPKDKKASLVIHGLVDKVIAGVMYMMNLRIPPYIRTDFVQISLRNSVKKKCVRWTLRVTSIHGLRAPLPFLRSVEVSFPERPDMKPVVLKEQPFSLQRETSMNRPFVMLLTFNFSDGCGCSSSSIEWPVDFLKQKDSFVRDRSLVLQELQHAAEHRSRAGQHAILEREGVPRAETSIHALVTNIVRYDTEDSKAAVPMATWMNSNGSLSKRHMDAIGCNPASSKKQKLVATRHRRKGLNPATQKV
In words: dot blot deacetylation assay, H3K9Ac. In kind it is biochemical.

Test [2] addresses T1, OsSRT1 (FL). In words: dot blot deacetylation assay, H3K9Ac. It counts as biochemical. The source holds these as a separate data set.

Where two headings read alike, the source gives them in different places.

With `Nc1ncnc2c1ncn2[C@@H]1O[C@H](COP(=O)(O)OP(=O)(O)OC[C@H]2OC(O)[C@H](O)[C@@H]2O)[C@@H](O)[C@H]1O` (stereo partly shown) [ADP-ribose], on OsSRT1 (FL) [1] (H3K9Ac deacetylation, product inhibition), the midpoint of inhibition, the IC50, lay at 25 ± 2 µM. Regarding `NC(=O)c1cccnc1` [NAM], half-maximal inhibition against OsSRT1 (FL) [1] (IC50) was put at 147 ± 21 µM. Turning to `Oc1ccc(/C=C/c2cc(O)cc(O)c2)cc1` [resveratrol], the EC50 (commonly the midpoint of the concentration-response curve) at OsSRT1 (FL) [2] came out at 236 ± 12 µM.

On to `CCCC(=O)O` [sodium butyrate], for which the IC50 (in general, the midpoint of a concentration-inhibition curve) at OsSRT1 (FL) [1] worked out at 98 ± 15 µM.
